Reference: patent publication US7741327B2 (Hoffmann-La Roche Inc., priority 2008, dated 2010)

The compounds below were run against T1, Recombinant human liver GK1 (GST-GK) (Homo sapiens, UniProt P35557) (assay: In vitro glucokinase activity (G6PDH-coupled NADH assay)). Settings: 30° C., 5 mM D-glucose, 10% DMSO.
T1 construct: made in house; host or cells: E. coli
T1 sequence (P35557 1-466 isoform P35557-2): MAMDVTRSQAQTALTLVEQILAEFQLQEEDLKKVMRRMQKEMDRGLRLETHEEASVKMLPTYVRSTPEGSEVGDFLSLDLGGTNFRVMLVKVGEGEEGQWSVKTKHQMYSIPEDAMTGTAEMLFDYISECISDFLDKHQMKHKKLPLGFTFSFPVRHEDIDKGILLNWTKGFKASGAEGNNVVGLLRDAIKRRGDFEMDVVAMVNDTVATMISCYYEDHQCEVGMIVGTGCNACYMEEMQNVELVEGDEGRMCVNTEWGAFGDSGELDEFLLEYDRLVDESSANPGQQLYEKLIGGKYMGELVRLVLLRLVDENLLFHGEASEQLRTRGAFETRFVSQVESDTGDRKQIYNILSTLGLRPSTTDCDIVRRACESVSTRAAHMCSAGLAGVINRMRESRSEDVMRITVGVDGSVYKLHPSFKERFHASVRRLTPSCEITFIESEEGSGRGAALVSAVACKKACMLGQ
Type: biochemical
Description: Glucokinase In Vitro Assay Protocol: Glucokinase (GK) was assayed by coupling the production of glucose-6-phosphate to the generation of NADH with glucose-6-phosphate dehydrogenase (G6PDH, 0.75-1 kunits/mg; Boehringer Mannheim, Indianapolis, Ind.) from Leuconostoc mesenteroides as the coupling enzyme (Scheme 2).
Recombinant human liver GK1 was expressed in E. coli as a glutathione S-transferase fusion protein (GST-GK) [Liang et al, 1995] and was purified by chromatography over a glutathione-Sepharose 4B affinity column using the procedure provided by the manufacturer (Amersham Pharmacia Biotech, Piscataway, N.J.).
The assay was conducted at 30° C. in a flat bottom 96-well tissue culture plate from Costar (Cambridge, Mass.) with a final incubation volume of 120 μL. The incubation reaction contained the following: 25 mM Hepes buffer (pH 7.1), 25 mM KCl, 5 mM D-glucose, 1 mM ATP, 1.8 mM NAD, 2 mM MgCl2, 1 μM sorbitol-6-phosphate, 1 mM dithiothreitol, test drug or 10% dimethylsulfoxide, ˜7 units/ml G6PDH, and GK (see below). All organic reagents were >98% pure and were from Boehringer Mannheim with the exceptions of D-glucose and Hepes which were from Sigma Chemical Co, St Louis, Mo. Test compounds were dissolved in dimethylsulfoxide and were added to the incubation reaction minus GST-GK in a volume of 12 μL to yield a final dimethylsulfoxide concentration of 10%. This mix was pre-incubated in the temperature controlled chamber of a SPECTRAmax 250 microplate spectrophotometer (Molecular Devices Corporation, Sunnyvale, Calif.) for 10 min to allow temperature equilibrium and then the reaction was started by the addition of 20 μL GST-GK.
After addition of enzyme, the increase in optical density (OD) at 340 nm was monitored spectrophotometrically to determine the rate of change (OD340 per min). The GK activity (OD340/min) in control wells (10% DMSO minus GK activators) was compared with the activity in wells containing test GK activators, and the concentration of activator that produced a 50% increase in the activity of GK, i.e., the SC1.5, was calculated. The table below provides the in vitro glucokinase activity for the compounds in the Examples: […]

| SMILES | SC1.5 (concentration of activator that produced a 50% increase in the activity of GK) |
| --- | --- |
| COc1cccc(OC2=CC(=O)N([C@@H](CC3CCCCC3)C(=O)Nc3ccn(C[C@@H](O)CO)n3)C2)c1 [Example 164, (S)-3-Cyclohexyl-N-[1-((R)-2,3-dihydroxy-propyl)-1H-pyrazol-3-yl]-2-[4-(3-methoxy-phenoxy)-2-oxo-2,5-dihydro-pyrrol-1-yl]-propionamide] | 0.012 µM |
| CC(C)(O)Cn1ccc(NC(=O)C(CC2C3CCC2CC3)N2CC(Oc3ccccc3Cl)=CC2=O)n1 (stereo not drawn) [Example 229, 3-bicyclo[2.2.1]hept-7-yl-2-[4-(2-chloro-phenoxy)-2-oxo-2,5-dihydro-pyrrol-1-yl]-N-[1-(2-hydroxy-2-methyl-propyl)-1H-pyrazol-3-yl]-propionamide] | 1.109 µM |
| COc1ccc(OC2=CC(=O)N([C@@H](CC(C)C)C(=O)Nc3ccn(C[C@@H](O)CO)n3)C2)cc1 [Example 99, (S)-2-[4-(4-Methoxy-phenoxy)-2-oxo-2,5-dihydro-pyrrol-1-yl]-4-methyl-pentanoic acid [1-((R)-2,3-dihydroxy-propyl)-1H-pyrazol-3-yl]-amide] | 0.747 µM |
| CC(C)(O)Cn1ccc(NC(=O)[C@H](CC2CCCCC2)N2CC(OCC3COc4ccccc4O3)=CC2=O)n1 (stereo partly drawn) [Example 60, (S)-3-Cyclohexyl-2-[4-(2,3-dihydro-benzo[1,4]dioxin-2-ylmethoxy)-2-oxo-2,5-dihydro-pyrrol-1-yl]-N-[1-(2-hydroxy-2-methyl-propyl)-1-H-pyrazol-3-yl]-propionamide] | 0.99 µM |
| CC(CC(C(=O)Nc1ccn(CC(C)(C)O)n1)N1CC(Oc2ccccc2Cl)=CC1=O)C(F)(F)F (stereo not drawn) [Example 226, 2-[4-(2-Chloro-phenoxy)-2-oxo-2,5-dihydro-pyrrol-1-yl]-5,5,5-trifluoro-4-methyl-pentanoic acid [1-(2-hydroxy-2-methyl-propyl)-1H-pyrazol-3-yl]-amide] | 0.944 µM |
| CC(C)(O)Cn1ccc(NC(=O)[C@H](CC2CCCCC2)N2CC(Oc3c(F)cccc3Cl)=CC2=O)n1 [Example 67, (S)-2-[4-(2-Chloro-6-fluoro-phenoxy)-2-oxo-2,5-dihydro-pyrrol-1-yl]-3-cyclohexyl-N-[1-(2-hydroxy-2-methyl-propyl)-1H-pyrazol-3-yl]-propionamide] | 0.028 µM |
| CCOc1cccc(OC2=CC(=O)N([C@@H](CC(C)C)C(=O)Nc3ccn(CC(C)(C)O)n3)C2)c1F [Example 114, (S)-2-[4-(3-Ethoxy-2-fluoro-phenoxy)-2-oxo-2,5-dihydro-pyrrol-1-yl]-4-methyl-pentanoic acid [1-(2-hydroxy-2-methyl-propyl)-1H-pyrazol-3-yl]-amide] | 0.02 µM |
| CCOc1ccc(F)c(OC2=CC(=O)N([C@@H](CC3CCOCC3)C(=O)Nc3ccn(CC(C)(C)O)n3)C2)c1F (single isomer, unassigned) [Example 257] | 0.006 µM |
| CC(C)C[C@@H](C(=O)Nc1ccn(C[C@@H](O)CO)n1)N1CC(Oc2cc(F)ccc2F)=CC1=O [Example 101, (S)-2-[4-(2,5-Difluoro-phenoxy)-2-oxo-2,5-dihydro-pyrrol-1-yl]-4-methyl-pentanoic acid [1-((R)-2,3-dihydroxy-propyl)-1H-pyrazol-3-yl]-amide] | 0.33 µM |
| CC(C)C[C@@H](C(=O)Nc1nc(CCC(F)(F)F)ns1)N1CC(Oc2ccccc2Cl)=CC1=O [Example 106, (S)-2-[4-(2-Chloro-phenoxy)-2-oxo-2,5-dihydro-pyrrol-1-yl]-4-methyl-pentanoic acid [3-(3,3,3-trifluoro-propyl)-[1,2,4]thiadiazol-5-yl]-amide] | ~30 µM |
| CC(C)C[C@@H](C(=O)Nc1ccn(CC(C)(C)O)n1)N1CC(Oc2c(F)ccc(OC(C)C)c2F)=CC1=O [Example 135, (S)-2-[4-(2,6-Difluoro-3-isopropoxy-phenoxy)-2-oxo-2,5-dihydro-pyrrol-1-yl]-4-methyl-pentanoic acid [1-(2-hydroxy-2-methyl-propyl)-1H-pyrazol-3-yl]-amide] | 0.066 µM |
| CC(C)C[C@@H](C(=O)Nc1ccn(CC(N)=O)n1)N1CC(Oc2cccc(C3CC3)c2F)=CC1=O [Example 156, (S)-2-[4-(3-Cyclopropyl-2-fluoro-phenoxy)-2-oxo-2,5-dihydro-pyrrol-1-yl]-4-methyl-pentanoic acid (1-carbamoylmethyl-1H-pyrazol-3-yl)-amide] | 0.406 µM |
| C=CCOC(=O)Cc1nsc(NC(=O)[C@H](CC(C)C)N2CC(Oc3ccccc3Cl)=CC2=O)n1 [Example 111, (5-{(S)-2-[4-(2-Chloro-phenoxy)-2-oxo-2,5-dihydro-pyrrol-1-yl]-4-methyl-pentanoylamino}-[1,2,4]thiadiazol-3-yl)-acetic acid allyl ester] | 0.694 µM |
| CC(C)(O)Cn1ccc(NC(=O)[C@H](CC2CCCCC2)N2CC(Nc3ccc(Cl)c(Cl)c3)=CC2=O)n1 [Example 231, (S)-3-Cyclohexyl-2-[4-(3,4-dichloro-phenylamino)-2-oxo-2,5-dihydro-pyrrol-1-yl]-N-[1-(2-hydroxy-2-methyl-propyl)-1H-pyrazol-3-yl]-propionamide] | 5.931 µM |
| C=Cc1cccc(OC2=CC(=O)N([C@@H](CC(C)C)C(=O)Nc3cnccn3)C2)c1F [Example 154, (S)-2-[4-(2-Fluoro-3-vinyl-phenoxy)-2-oxo-2,5-dihydro-pyrrol-1-yl]-4-methyl-pentanoic acid pyrazin-2-ylamide] | 0.172 µM |
| CC(C)C[C@@H](C(=O)Nc1ccn(C[C@@H](O)CO)n1)N1CC(Oc2cccc(C3CC3)c2F)=CC1=O [Example 147, (S)-2-[4-(3-Cyclopropyl-2-fluoro-phenoxy)-2-oxo-2,5-dihydro-pyrrol-1-yl]-4-methyl-pentanoic acid [1-((R)-2,3-dihydroxy-propyl)-1H-pyrazol-3-yl]-amide] | 0.105 µM |
| CC[C@@H](C)CC(C(=O)Nc1ccn(C[C@@H]2COC(C)(C)O2)n1)N1CC(Oc2ccccc2Cl)=CC1=O (stereo partly drawn) [Example 252, (R)-2-[4-(2-Chloro-phenoxy)-2-oxo-2,5-dihydro-pyrrol-1-yl]-4-methyl-hexanoic acid [1-((R)-2,2-dimethyl-[1,3]dioxolan-4-ylmethyl)-1H-pyrazol-3-yl]-amide] | 0.197 µM |
| O=C(Nc1ccn(C[C@@H](O)CO)n1)[C@H](Cc1ccccc1F)N1CC(Oc2ccccc2Cl)=CC1=O [Example 183, (S)-2-[4-(2-chloro-phenoxy)-2-oxo-2,5-dihydro-pyrrol-1-yl]-N-[1-((R)-2,3-dihydroxy-propyl)-1H-pyrazol-3-yl]-3-(2-fluorophenyl)-propionamide] | 0.325 µM |
| CC1(C)OC[C@@H](Cn2ccc(NC(=O)[C@H](Cc3ccc(F)cc3)N3CC(Oc4ccccc4Cl)=CC3=O)n2)O1 [Example 186, (S)-2-[4-(2-chloro-phenoxy)-2-oxo-2,5-dihydro-pyrrol-1-yl]-N-[1-((R)-2,2-dimethyl-[1,3]dioxolan-4-yl-methyl)-1H-pyrazol-3-yl]-3-(4-fluoro-phenyl)-propionamide] | 1.538 µM |
| CC(C)(O)Cn1ccc(NC(=O)[C@H](CC2CCCCC2)N2CC(Oc3cccc(F)c3F)=CC2=O)n1 [Example 200, (S)-3-cyclohexyl-2-[4-(2,3-difluoro-phenoxy)-2-oxo-2,5-dihydro-pyrrol-1-yl]-N-[1-(2-hydroxy-2-methyl-propyl)-1H-pyrazol-3-yl]-propionamide] | 0.011 µM |

Same assay, conditions: at 30 μM test compound

| SMILES | fold act. @ 30 μM |
| --- | --- |
| CC(C)C[C@@H](C(=O)Nc1nc(CCC(F)(F)F)ns1)N1CC(Oc2ccccc2Cl)=CC1=O [Example 106, (S)-2-[4-(2-Chloro-phenoxy)-2-oxo-2,5-dihydro-pyrrol-1-yl]-4-methyl-pentanoic acid [3-(3,3,3-trifluoro-propyl)-[1,2,4]thiadiazol-5-yl]-amide] | 1.5 fold |
